Data as given in publication PMC9977887, “Crocodile defensin (CpoBD13) antifungal activity via pH-dependent phospholipid targeting and membrane disruption” (Nature Communications, 2023).
Where no end group is shown, it is not given here.

Tests used:
Liposome pulldown = assay type: binding; conditions: for Fraction of total protein (%), bound fraction: pH 5.5 (20 mM MES); for Fraction of total protein (%), bound fraction / Fraction of total protein (%), Bound: 1 µg defensin
Procedure: (§1) Liposomes were prepared using natural chicken egg L-α-phophatidylcholine and L-α-phosphatidic acid dissolved in chloroform (Avanti Polar Lipids), and liposome pulldowns (at pH 7.4) and calcein-encapsulated liposome lysis assays were performed as previously described. For liposome pulldowns performed at pH 5.5, the same protocol was used with minor variations. The desiccated lipid films were resuspended in 20 mM MES pH 7.4 and were washed in the same buffer during the centrifugation process. After the final wash step, the liposome pellets were resuspended in 20 mM MES pH 5.5 and incubated with CpoBD13 or mutants thereof (also prepared in the same acidic buffer).

[1] = Calcein-encapsulated liposome lysis assay; assay type: biochemical
Procedure: as §1

[2] = PC only liposomes, pH 7.4, replicate 1
[3] = PC only liposomes, pH 7.4, replicate 2
[4] = PC only liposomes, pH 7.4, replicate 3
[5] = PC:PA 95:5 liposomes, pH 7.4, replicate 1
[6] = PC:PA 95:5 liposomes, pH 7.4, replicate 2
[7] = PC:PA 95:5 liposomes, pH 7.4, replicate 3

In the case of “CpoBD13: saltwater crocodile β-defensin 13, histidine-rich, three disulphide bonds, recombinantly expressed in Pichia pastoris (NGSYYSTLQCRNNHGHCRRLCFHGEQWIGNCNGRHQHCCK; disulfide (positions not given here); also: three disulphide bonds, pairings not given here)”, the “Fraction of total protein (%), bound fraction” value (“Fraction … (%), bound fraction” for short) (Liposome pulldown; PC only liposomes, replicate 1) is reported as 18.4161%, the “Fraction … (%), bound fraction” value (Liposome pulldown; PC only liposomes, replicate 2) is reported as 18.4773% and the “Fraction … (%), bound fraction” value (Liposome pulldown; PC only liposomes, replicate 3) is reported as 29.8053%. For the same substance, the “Fraction of total protein (%), Bound” value (Liposome pulldown; [2]) was 12.3509%, the “Fraction of total protein (%), Bound” value (Liposome pulldown; [3]) was 1.776% and the “Fraction of total protein (%), Bound” value (Liposome pulldown; [4]) was 33.499%. The “Fraction of total protein (%), Unbound” value (Liposome pulldown; [2]) was 82.3399%, the “Fraction of total protein (%), Unbound” value (Liposome pulldown; [3]) was 73.2719% and the “Fraction of total protein (%), Unbound” value (Liposome pulldown; [4]) was 23.4493%. The “binding to PA-enriched liposomes” value (Liposome pulldown; PC:PA 95:5, pH 7.4) was “preferentially bound”, the “Fraction … (%), bound fraction” value (Liposome pulldown; PC:PA 95:5 liposomes, replicate 1) was 88.2406% and the “Fraction … (%), bound fraction” value (Liposome pulldown; PC:PA 95:5 liposomes, replicate 2) was 92.9019%. The “Fraction … (%), bound fraction” value (Liposome pulldown; PC:PA 95:5 liposomes, replicate 3) was 89.3441%, the “Fraction of total protein (%), Bound” value (Liposome pulldown; [5]) was 40.526% and the “Fraction of total protein (%), Bound” value (Liposome pulldown; [6]) was 42.0716%. For the same substance, the “Fraction of total protein (%), Bound” value (Liposome pulldown; [7]) was 52.0773%, the “Fraction of total protein (%), Unbound” value (Liposome pulldown; [5]) was 36.1151% and the “Fraction of total protein (%), Unbound” value (Liposome pulldown; [6]) was 13.782%. For the same substance, the “Fraction of total protein (%), Unbound” value (Liposome pulldown; [7]) was 17.5375%, the “binding to PC only liposomes” value (Liposome pulldown; pH 7.4) was “negligible binding” and the “lysis of PC:PA liposomes relative to PC only liposomes” value ([1]; 20 µM, 30 min, calcein release) was “significant increase in the lysis”. The “Lysis (%)” value ([1]; PC liposomes, replicate 1) was 54.3884%, the “Lysis (%)” value ([1]; PC liposomes, replicate 2) was 55.3559% and the “Lysis (%)” value ([1]; PC liposomes, replicate 3) was 54.0992%. For the same substance, the “Lysis (%)” value ([1]; PC:PA liposomes, replicate 1) was 67.3935%, the “Lysis (%)” value ([1]; PC:PA liposomes, replicate 2) was 66.6111% and the “Lysis (%)” value ([1]; PC:PA liposomes, replicate 3) was 65.2527%. For the same substance, the “Lysis (%)” value ([1]; PC:PA, 20 µM, 0 min, replicate 1) was 25.7371%, the “Lysis (%)” value ([1]; PC:PA, 20 µM, 0 min, replicate 2) was 19.5617% and the “Lysis (%)” value ([1]; PC:PA, 20 µM, 0 min, replicate 3) was 31.0288%. For the same substance, the “Lysis (%)” value ([1]; PC:PA, 20 µM, 2 min, replicate 1) was 44.3847%, the “Lysis (%)” value ([1]; PC:PA, 20 µM, 2 min, replicate 2) was 47.8762% and the “Lysis (%)” value ([1]; PC:PA, 20 µM, 2 min, replicate 3) was 47.362%. For the same substance, the “Lysis (%)” value ([1]; PC:PA, 20 µM, 4 min, replicate 1) was 50.7757%, the “Lysis (%)” value ([1]; PC:PA, 20 µM, 4 min, replicate 2) was 55.3375% and the “Lysis (%)” value ([1]; PC:PA, 20 µM, 4 min, replicate 3) was 52.3336%. For the same substance, the “Lysis (%)” value ([1]; PC:PA, 20 µM, 6 min, replicate 1) was 56.1428%, the “Lysis (%)” value ([1]; PC:PA, 20 µM, 6 min, replicate 2) was 57.6724% and the “Lysis (%)” value ([1]; PC:PA, 20 µM, 6 min, replicate 3) was 56.2525%. The “Lysis (%)” value ([1]; PC:PA, 20 µM, 8 min, replicate 1) was 57.9433%, the “Lysis (%)” value ([1]; PC:PA, 20 µM, 8 min, replicate 2) was 61.2343% and the “Lysis (%)” value ([1]; PC:PA, 20 µM, 8 min, replicate 3) was 57.4403%. For the same substance, the “Lysis (%)” value ([1]; PC:PA, 20 µM, 10 min, replicate 1) was 60.1091%, the “Lysis (%)” value ([1]; PC:PA, 20 µM, 10 min, replicate 2) was 61.4149% and the “Lysis (%)” value ([1]; PC:PA, 20 µM, 10 min, replicate 3) was 58.1894%. The “Lysis (%)” value ([1]; PC:PA, 20 µM, 12 min, replicate 1) was 61.5771%, the “Lysis (%)” value ([1]; PC:PA, 20 µM, 12 min, replicate 2) was 62.8368% and the “Lysis (%)” value ([1]; PC:PA, 20 µM, 12 min, replicate 3) was 59.7071%. For the same substance, the “Lysis (%)” value ([1]; PC:PA, 20 µM, 14 min, replicate 1) was 62.1444%, the “Lysis (%)” value ([1]; PC:PA, 20 µM, 14 min, replicate 2) was 63.0568% and the “Lysis (%)” value ([1]; PC:PA, 20 µM, 14 min, replicate 3) was 60.7639%. The “Lysis (%)” value ([1]; PC:PA, 20 µM, 16 min, replicate 1) was 64.0158%, the “Lysis (%)” value ([1]; PC:PA, 20 µM, 16 min, replicate 2) was 63.5735% and the “Lysis (%)” value ([1]; PC:PA, 20 µM, 16 min, replicate 3) was 61.3601%. For the same substance, the “Lysis (%)” value ([1]; PC:PA, 20 µM, 18 min, replicate 1) was 65.2175%, the “Lysis (%)” value ([1]; PC:PA, 20 µM, 18 min, replicate 2) was 63.6472% and the “Lysis (%)” value ([1]; PC:PA, 20 µM, 18 min, replicate 3) was 61.6924%. The “Lysis (%)” value ([1]; PC:PA, 20 µM, 20 min, replicate 1) was 64.1335%, the “Lysis (%)” value ([1]; PC:PA, 20 µM, 20 min, replicate 2) was 65.2803% and the “Lysis (%)” value ([1]; PC:PA, 20 µM, 20 min, replicate 3) was 62.4881%. For the same substance, the “Lysis (%)” value ([1]; PC:PA, 20 µM, 22 min, replicate 1) was 64.7756%, the “Lysis (%)” value ([1]; PC:PA, 20 µM, 22 min, replicate 2) was 65.3585% and the “Lysis (%)” value ([1]; PC:PA, 20 µM, 22 min, replicate 3) was 63.4838%. The “Lysis (%)” value ([1]; PC:PA, 20 µM, 24 min, replicate 1) was 65.4459%, the “Lysis (%)” value ([1]; PC:PA, 20 µM, 24 min, replicate 2) was 66.2461% and the “Lysis (%)” value ([1]; PC:PA, 20 µM, 24 min, replicate 3) was 64.0406%. For the same substance, the “Lysis (%)” value ([1]; PC:PA, 20 µM, 26 min, replicate 1) was 65.9416%, the “Lysis (%)” value ([1]; PC:PA, 20 µM, 26 min, replicate 2) was 66.5138% and the “Lysis (%)” value ([1]; PC:PA, 20 µM, 26 min, replicate 3) was 64.3943%. The “Lysis (%)” value ([1]; PC:PA, 20 µM, 28 min, replicate 1) was 66.2501%, the “Lysis (%)” value ([1]; PC:PA, 20 µM, 28 min, replicate 2) was 65.4475% and the “Lysis (%)” value ([1]; PC:PA, 20 µM, 28 min, replicate 3) was 64.7127%. For the same substance, the “Lysis (%)” value ([1]; PC:PA, 20 µM, 30 min, replicate 1) was 67.3935%, the “Lysis (%)” value ([1]; PC:PA, 20 µM, 30 min, replicate 2) was 66.6111% and the “Lysis (%)” value ([1]; PC:PA, 20 µM, 30 min, replicate 3) was 65.2527%. The “Lysis (%)” value ([1]; PC, 20 µM, 0 min, replicate 1) was 15.1234%, the “Lysis (%)” value ([1]; PC, 20 µM, 0 min, replicate 2) was 15.1242% and the “Lysis (%)” value ([1]; PC, 20 µM, 0 min, replicate 3) was 13.8859%. The “Lysis (%)” value ([1]; PC, 20 µM, 2 min, replicate 1) was 39.0447%, the “Lysis (%)” value ([1]; PC, 20 µM, 2 min, replicate 2) was 32.4816% and the “Lysis (%)” value ([1]; PC, 20 µM, 2 min, replicate 3) was 30.5639%. The “Lysis (%)” value ([1]; PC, 20 µM, 4 min, replicate 1) was 45.2997%, the “Lysis (%)” value ([1]; PC, 20 µM, 4 min, replicate 2) was 38.3127% and the “Lysis (%)” value ([1]; PC, 20 µM, 4 min, replicate 3) was 36.68%. The “Lysis (%)” value ([1]; PC, 20 µM, 6 min, replicate 1) was 48.9071%, the “Lysis (%)” value ([1]; PC, 20 µM, 6 min, replicate 2) was 41.9281% and the “Lysis (%)” value ([1]; PC, 20 µM, 6 min, replicate 3) was 41.2305%. For the same substance, the “Lysis (%)” value ([1]; PC, 20 µM, 8 min, replicate 1) was 49.7649%, the “Lysis (%)” value ([1]; PC, 20 µM, 8 min, replicate 2) was 44.0474% and the “Lysis (%)” value ([1]; PC, 20 µM, 8 min, replicate 3) was 43.6445%. For the same substance, the “Lysis (%)” value ([1]; PC, 20 µM, 10 min, replicate 1) was 51.7674%, the “Lysis (%)” value ([1]; PC, 20 µM, 10 min, replicate 2) was 44.7293% and the “Lysis (%)” value ([1]; PC, 20 µM, 10 min, replicate 3) was 45.2138%. For the same substance, the “Lysis (%)” value ([1]; PC, 20 µM, 12 min, replicate 1) was 52.4795%, the “Lysis (%)” value ([1]; PC, 20 µM, 12 min, replicate 2) was 46.5217% and the “Lysis (%)” value ([1]; PC, 20 µM, 12 min, replicate 3) was 46.4513%. For the same substance, the “Lysis (%)” value ([1]; PC, 20 µM, 14 min, replicate 1) was 52.8236%, the “Lysis (%)” value ([1]; PC, 20 µM, 14 min, replicate 2) was 47.6803% and the “Lysis (%)” value ([1]; PC, 20 µM, 14 min, replicate 3) was 47.9678%. For the same substance, the “Lysis (%)” value ([1]; PC, 20 µM, 16 min, replicate 1) was 54.9403%, the “Lysis (%)” value ([1]; PC, 20 µM, 16 min, replicate 2) was 49.0986% and the “Lysis (%)” value ([1]; PC, 20 µM, 16 min, replicate 3) was 49.0311%. For the same substance, the “Lysis (%)” value ([1]; PC, 20 µM, 18 min, replicate 1) was 53.0929%, the “Lysis (%)” value ([1]; PC, 20 µM, 18 min, replicate 2) was 50.179% and the “Lysis (%)” value ([1]; PC, 20 µM, 18 min, replicate 3) was 50.039%. For the same substance, the “Lysis (%)” value ([1]; PC, 20 µM, 20 min, replicate 1) was 53.041%, the “Lysis (%)” value ([1]; PC, 20 µM, 20 min, replicate 2) was 50.8527% and the “Lysis (%)” value ([1]; PC, 20 µM, 20 min, replicate 3) was 51.0255%. For the same substance, the “Lysis (%)” value ([1]; PC, 20 µM, 22 min, replicate 1) was 54.0904%, the “Lysis (%)” value ([1]; PC, 20 µM, 22 min, replicate 2) was 52.2587% and the “Lysis (%)” value ([1]; PC, 20 µM, 22 min, replicate 3) was 51.6328%. For the same substance, the “Lysis (%)” value ([1]; PC, 20 µM, 24 min, replicate 1) was 54.3794%, the “Lysis (%)” value ([1]; PC, 20 µM, 24 min, replicate 2) was 53.0954% and the “Lysis (%)” value ([1]; PC, 20 µM, 24 min, replicate 3) was 52.0331%. The “Lysis (%)” value ([1]; PC, 20 µM, 26 min, replicate 1) was 55.6275%, the “Lysis (%)” value ([1]; PC, 20 µM, 26 min, replicate 2) was 53.8088% and the “Lysis (%)” value ([1]; PC, 20 µM, 26 min, replicate 3) was 52.9179%. The “Lysis (%)” value ([1]; PC, 20 µM, 28 min, replicate 1) was 53.4363%, the “Lysis (%)” value ([1]; PC, 20 µM, 28 min, replicate 2) was 55.2629% and the “Lysis (%)” value ([1]; PC, 20 µM, 28 min, replicate 3) was 53.0065%. For the same substance, the “Lysis (%)” value ([1]; PC, 20 µM, 30 min, replicate 1) was 54.3884%, the “Lysis (%)” value ([1]; PC, 20 µM, 30 min, replicate 2) was 55.3559% and the “Lysis (%)” value ([1]; PC, 20 µM, 30 min, replicate 3) was 54.0992%.
